Source: ChEMBL document CHEMBL1201862, “PubChem BioAssay data set” (2004)
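The compound was tested at five concentrations on cells cultured in 96-well plates, with a 48-hour exposure period. Here, GI50 denotes the concentration required for 50% inhibition of growth.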 The source made the active and inactive calls. Rule as the data show it: active = GI50 up to about 1.1 µM and inactive = higher.

Columns and labels:
Assay in all cases: growth of human tumour cells (NCI), 48 h
786-0 = test system: 786-0
A498 = test system: A498
A549 = test system: A549
ACHN = test system: ACHN
BT-549 = test system: BT-549
CAKI-1 = test system: CAKI-1
CCRF-CEM = test system: CCRF-CEM
COLO 205 = test system: COLO 205
DU-145 = test system: DU-145
EKVX = test system: EKVX
HCT-116 = test system: HCT-116
HCT-15 = test system: HCT-15
HL-60 = test system: HL-60
HOP-62 = test system: HOP-62
HOP-92 = test system: HOP-92
HT-29 = test system: HT-29
Hs-578T = test system: Hs-578T
IGROV-1 = test system: IGROV-1
K562 = test system: K562
KM12 = test system: KM12
LOX IMVI = test system: LOX IMVI
M14 = test system: M14
MCF7 = test system: MCF7
MDA-MB-231 = test system: MDA-MB-231
MDA-MB-435 = test system: MDA-MB-435
MDA-N = test system: MDA-N
MOLT-4 = test system: MOLT-4
Malme-3M = test system: Malme-3M
NCI-H226 = test system: NCI-H226
NCI-H23 = test system: NCI-H23
NCI-H460 = test system: NCI-H460
NCI-H522 = test system: NCI-H522
NCI/ADR-RES = test system: NCI/ADR-RES
OVCAR-3 = test system: OVCAR-3
OVCAR-4 = test system: OVCAR-4
OVCAR-5 = test system: OVCAR-5
OVCAR-8 = test system: OVCAR-8
PC-3 = test system: PC-3
RPMI-8226 = test system: RPMI-8226
RXF 393 = test system: RXF 393
SF-268 = test system: SF-268
SF-295 = test system: SF-295
SF-539 = test system: SF-539
SK-MEL-28 = test system: SK-MEL-28
SK-MEL-2 = test system: SK-MEL-2
SK-MEL-5 = test system: SK-MEL-5
SK-OV-3 = test system: SK-OV-3
SN12C = test system: SN12C
SNB-19 = test system: SNB-19
SNB-75 = test system: SNB-75
SR = test system: SR
SW-620 = test system: SW-620
T47D = test system: T47D
TK-10 = test system: TK-10
U-251 = test system: U-251
UACC-257 = test system: UACC-257
UACC-62 = test system: UACC-62
UO-31 = test system: UO-31

Structure (SMILES): CC(O)C1(CNc2cc(Cl)nc(N)n2)CCCCC1 (stereo not drawn)
- GI50 (786-0): > 100 µM (inactive)
- GI50 (A498): 39.3 µM (inactive)
- GI50 (A549): 77.6 µM (inactive)
- GI50 (ACHN): > 100 µM (inactive)
- GI50 (BT-549): 70.1 µM (inactive)
- GI50 (CAKI-1): > 100 µM (inactive)
- GI50 (CCRF-CEM): 97.5 µM (inactive)
- GI50 (COLO 205): > 100 µM (inactive)
- GI50 (DU-145): > 100 µM (inactive)
- GI50 (EKVX): 58.1 µM (inactive)
- GI50 (HCT-116): > 100 µM (inactive)
- GI50 (HCT-15): > 100 µM
- GI50 (HL-60): 89.7 µM (inactive)
- GI50 (HOP-62): > 100 µM (inactive)
- GI50 (HOP-92): 69.3 µM (inactive)
- GI50 (HT-29): > 100 µM (inactive)
- GI50 (Hs-578T): > 100 µM (inactive)
- GI50 (IGROV-1): > 100 µM (inactive)
- GI50 (K562): 69.3 µM (inactive)
- GI50 (KM12): 85.3 µM (inactive)
- GI50 (LOX IMVI): 91 µM (inactive)
- GI50 (M14): > 100 µM (inactive)
- GI50 (MCF7): 82.2 µM (inactive)
- GI50 (MDA-MB-231): > 100 µM (inactive)
- GI50 (MDA-MB-435): > 100 µM (inactive)
- GI50 (MDA-N): > 100 µM (inactive)
- GI50 (MOLT-4): 35.6 µM (inactive)
- GI50 (Malme-3M): > 100 µM (inactive)
- GI50 (NCI-H226): > 100 µM (inactive)
- GI50 (NCI-H23): 83.6 µM (inactive)
- GI50 (NCI-H460): > 100 µM (inactive)
- GI50 (NCI-H522): 55.7 µM (inactive)
- GI50 (NCI/ADR-RES): 58.2 µM (inactive)
- GI50 (OVCAR-3): > 100 µM (inactive)
- GI50 (OVCAR-4): 37.3 µM (inactive)
- GI50 (OVCAR-5): > 100 µM (inactive)
- GI50 (OVCAR-8): > 100 µM (inactive)
- GI50 (PC-3): 65.6 µM (inactive)
- GI50 (RPMI-8226): 48.9 µM (inactive)
- GI50 (RXF 393): > 100 µM (inactive)
- GI50 (SF-268): > 100 µM (inactive)
- GI50 (SF-295): > 100 µM (inactive)
- GI50 (SF-539): > 100 µM (inactive)
- GI50 (SK-MEL-28): > 100 µM (inactive)
- GI50 (SK-MEL-2): > 100 µM (inactive)
- GI50 (SK-MEL-5): 45.6 µM (inactive)
- GI50 (SK-OV-3): > 100 µM (inactive)
- GI50 (SN12C): 82.6 µM (inactive)
- GI50 (SNB-19): > 100 µM (inactive)
- GI50 (SNB-75): 69.5 µM (inactive)
- GI50 (SR): 66.1 µM (inactive)
- GI50 (SW-620): > 100 µM (inactive)
- GI50 (T47D): 59 µM (inactive)
- GI50 (TK-10): > 100 µM (inactive)
- GI50 (U-251): > 100 µM (inactive)
- GI50 (UACC-257): 84.9 µM (inactive)
- GI50 (UACC-62): > 100 µM (inactive)
- GI50 (UO-31): 59.2 µM (inactive)
